Test results taken from patent US9902722B2, “Biaryl kinase inhibitors” (BRISTOL-MYERS SQUIBB COMPANY, priority 2014, dated 2018).

Molecular target: GST-Xa-hAAK1 (Homo sapiens (Human), UniProt Q2M2I8)
Test: AAK1 Kinase Assay;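 further: each compound tested across an eleven-point concentration series, with IC50 obtained through non-linear regression fitting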
Format: biochemical
Conditions: bacterially expressed GST-Xa-hAAK1 3.5 nM; ATP 22 μM; peptide substrate 1.5 μM; 3 hours at room temperature; Caliper LabChip 3000
Description: The assays were performed in U-bottom 384-well plates. […] The reactions were initiated by the combination of bacterially expressed, GST-Xa-hAAK1 with substrates and test compounds. The reactions were incubated at room temperature for 3 hours and terminated by adding 60 μl of 35 mM EDTA buffer to each sample. […] Compounds were dissolved at 10 mM in dimethylsulfoxide (DMSO) and evaluated at eleven concentrations. IC50 values were derived by non-linear regression analysis.

Sequence of GST-Xa-hAAK1 (Q2M2I8 whole entry): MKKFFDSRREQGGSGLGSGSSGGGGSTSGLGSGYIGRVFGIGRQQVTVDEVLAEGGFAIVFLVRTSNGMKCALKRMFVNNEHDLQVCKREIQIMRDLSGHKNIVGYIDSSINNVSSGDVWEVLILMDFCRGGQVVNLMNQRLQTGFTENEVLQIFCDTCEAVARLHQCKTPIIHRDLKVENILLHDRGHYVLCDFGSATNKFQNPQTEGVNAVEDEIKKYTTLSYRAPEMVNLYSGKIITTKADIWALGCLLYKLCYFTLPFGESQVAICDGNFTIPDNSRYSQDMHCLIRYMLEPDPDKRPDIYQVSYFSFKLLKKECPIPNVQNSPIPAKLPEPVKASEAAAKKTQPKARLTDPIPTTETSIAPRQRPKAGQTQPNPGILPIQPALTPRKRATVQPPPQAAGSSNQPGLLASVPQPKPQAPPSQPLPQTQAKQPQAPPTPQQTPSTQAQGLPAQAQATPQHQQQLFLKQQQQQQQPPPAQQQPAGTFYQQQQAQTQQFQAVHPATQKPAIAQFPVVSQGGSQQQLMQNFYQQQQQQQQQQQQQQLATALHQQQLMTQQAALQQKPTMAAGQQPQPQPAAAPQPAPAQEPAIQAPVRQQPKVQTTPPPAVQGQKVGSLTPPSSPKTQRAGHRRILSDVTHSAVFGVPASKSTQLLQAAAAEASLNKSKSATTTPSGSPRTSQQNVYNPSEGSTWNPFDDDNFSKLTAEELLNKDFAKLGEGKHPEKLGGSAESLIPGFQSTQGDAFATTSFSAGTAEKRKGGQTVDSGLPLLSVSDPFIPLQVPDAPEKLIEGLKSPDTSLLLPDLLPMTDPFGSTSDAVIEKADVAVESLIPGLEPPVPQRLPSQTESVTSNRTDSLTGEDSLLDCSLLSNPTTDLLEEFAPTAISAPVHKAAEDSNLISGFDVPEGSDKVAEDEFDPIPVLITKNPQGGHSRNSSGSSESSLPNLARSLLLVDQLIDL

Compound: COC(=O)Nc1cc(-c2cc(C(F)(F)F)c(OC[C@](C)(N)CC(C)C)cn2)ccn1 [Example 166, (R)-methyl (5-((2-amino-2,4-dimethylpentyl)oxy)-4-(trifluoromethyl)-[2,4′-bipyridin]-2′-yl)carbamate]
- IC50: 20 nM

Compound: Cc1cc(-c2ccc(OC[C@@](C)(N)CC(C)C)c(S(C)(=O)=O)c2)ccn1 [Example 114, (S)-2,4-dimethyl-1-(4-(2-methylpyridin-4-yl)-2-(methylsulfonyl)phenoxy)pentan-2-amine]
- IC50: 1400 nM

Compound: Cc1cc(-c2cc(C(F)F)c(OC[C@@](C)(O)CC(C)C)cn2)ccn1 [Example 178, (S)-1-((4-(difluoromethyl)-2′-methyl-[2,4′-bipyridin]-5-yl)oxy)-2,4-dimethylpentan-2-ol]
- IC50: 150 nM

Compound: CC(C)C[C@](C)(N)COc1ncc(-c2ccnc3ccccc23)cc1C(F)(F)F [Example 219, (S)-2,4-dimethyl-1-((5-(quinolin-4-yl)-3-(trifluoromethyl)pyridin-2-yl)oxy)pentan-2-amine]
- IC50: 0.59 nM

Compound: CC(C)C[C@](C)(N)COc1ccc(-c2ccnc(C(F)F)c2)cc1C#N [Example 36, (S)-2-((2-amino-2,4-dimethylpentyl)oxy)-5-(2-(difluoromethyl)pyridin-4-yl)benzonitrile]
- IC50: 0.89 nM

Compound: Cc1cc(-c2cc(C)c(OC[C@@](C)(N)CC(C)C)c(F)n2)ccn1 [Example 107, (S)-1-((6-fluoro-2′,4-dimethyl-[2,4′-bipyridin]-5-yl)oxy)-2,4-dimethylpentan-2-amine]
- IC50: 50 nM

Compound: CC(=O)Nc1cc(-c2ccc(OC[C@@](C)(N)CC(C)C)c(C(F)F)c2)ccn1 [Example 23, (S)—N-(4-(4-((2-amino-2,4-dimethylpentyl)oxy)-3-(difluoromethyl)phenyl)pyridin-2-yl)acetamide]
- IC50: 0.76 nM

Compound: COC(=O)Nc1cc(-c2ccc(OCC(C)(N)CC(C)C)c(C)c2)ccn1 (stereo not shown) [Example 30, methyl (4-(4-((2-amino-2,4-dimethylpentyl)oxy)-3-methylphenyl)pyridin-2-yl)carbamate]
- IC50: 1.4 nM

Compound: Cc1cc(-c2ccnc3ccc(F)cc23)cnc1OC[C@@](C)(N)CC(C)C [Example 223, (S)-1-((5-(6-fluoroquinolin-4-yl)-3-methylpyridin-2-yl)oxy)-2,4-dimethylpentan-2-amine]
- IC50: 0.88 nM

Compound: CC(=O)Nc1cc(-c2ccc(OC[C@@](C)(N)CC(C)C)c(OC(F)(F)F)c2)ccn1 [Example 25, (S)—N-(4-(4-((2-amino-2,4-dimethylpentyl)oxy)-3-(trifluoromethoxy)phenyl)pyridin-2-yl)acetamide]
- IC50: 1 nM

Compound: CC(=O)Nc1cc(-c2cc(F)c(OC[C@@H](N)CC(C)C)cc2F)ccn1 [Example 12, (S)—N-(4-(4-((2-amino-4-methylpentyl)oxy)-2,5-difluorophenyl)pyridin-2-yl)acetamide]
- IC50: 1.6 nM

Compound: CC(C)C[C@](C)(N)COc1ccc(-c2ccnc3ccccc23)c2ccccc12 [Example 209, (S)-2,4-dimethyl-1-((4-(quinolin-4-yl)naphthalen-1-yl)oxy)pentan-2-amine]
- IC50: 21 nM

Compound: Cc1cc(-c2ccnc(F)c2)ccc1OC[C@@](C)(N)CC(C)C [Example 92, (S)-1-(4-(2-fluoropyridin-4-yl)-2-methylphenoxy)-2,4-dimethylpentan-2-amine]
- IC50: 5.4 nM

Compound: COC(=O)Nc1cc(-c2cc(OC)c(OC[C@@](C)(N)CC(C)C)cn2)ccn1 [Example 206, (S)-methyl (5-((2-amino-2,4-dimethylpentyl)oxy)-4-methoxy-[2,4′-bipyridin]-2′-yl)carbamate]
- IC50: 4.3 nM

Compound: Cc1cc(-c2ccnc3cc(F)cc(F)c23)cnc1OC[C@@](C)(N)CC(C)C [Example 224, (S)-1-((5-(5,7-difluoroquinolin-4-yl)-3-methylpyridin-2-yl)oxy)-2,4-dimethylpentan-2-amine]
- IC50: 1.1 nM

Compound: CC(C)C[C@](C)(N)COc1cnc(-c2ccnc3ccc(F)cc23)cc1C(F)F [Example 132, (S)-1-((4-(difluoromethyl)-6-(6-fluoroquinolin-4-yl)pyridin-3-yl)oxy)-2,4-dimethylpentan-2-amine]
- IC50: 1.5 nM

Compound: COC(=O)Nc1cc(-c2ccc(OC[C@@](C)(N)CC(C)C)c(C#N)c2)ccn1 [Example 22, (S)-methyl (4-(4-((2-amino-2,4-dimethylpentyl)oxy)-3-cyanophenyl)pyridin-2-yl)carbamate]
- IC50: 0.65 nM

Compound: Cc1cc(-c2ccnc3cc(Cl)ccc23)cnc1OC[C@@](C)(N)CC(C)C [Example 225, (S)-1-((5-(7-chloroquinolin-4-yl)-3-methylpyridin-2-yl)oxy)-2,4-dimethylpentan-2-amine]
- IC50: 0.74 nM

Compound: CC(C)C[C@](C)(N)COc1ncc(-c2ccnc3ccncc23)cc1C#N [Example 80, (S)-2-((2-amino-2,4-dimethylpentyl)oxy)-5-(1,6-naphthyridin-4-yl)nicotinonitrile]
- IC50: 19 nM

Compound: CC(C)C[C@](C)(N)COc1ccc(-c2ccnc3cc(F)cc(F)c23)nc1Cl [Example 135, (S)-1-((2-chloro-6-(5,7-difluoroquinolin-4-yl)pyridin-3-yl)oxy)-2,4-dimethylpentan-2-amine]
- IC50: 3.5 nM

Compound: Cc1cc(-c2ccc(OC[C@@](C)(N)CC(C)C)c(C(F)F)n2)cnn1 [Example 163, (S)-1-((2-(difluoromethyl)-6-(6-methylpyridazin-4-yl)pyridin-3-yl)oxy)-2,4-dimethylpentan-2-amine]
- IC50: 1100 nM

Compound: COC(=O)Nc1cc(-c2cc(C(F)F)c(OC[C@@](N)(CF)CC(C)C)cn2)ccn1 [Example 182, (R)-methyl (5-((2-amino-2-(fluoromethyl)-4-methylpentyl)oxy)-4-(difluoromethyl)-[2,4′-bipyridin]-2′-yl)carbamate]
- IC50: 8.7 nM

Compound: CC(C)C[C@@](C)(N)COc1cnc(-c2ccnc3ccccc23)cc1C(F)(F)F [Example 165, (R)-2,4-dimethyl-1-((6-(quinolin-4-yl)-4-(trifluoromethyl)pyridin-3-yl)oxy)pentan-2-amine]
- IC50: 21 nM

Compound: Cc1ccc2c(-c3cnc(OC[C@@](C)(N)CC(C)C)c(C(F)F)c3)ccnc2c1 [Example 205, (S)-1-((3-(difluoromethyl)-5-(7-methylquinolin-4-yl)pyridin-2-yl)oxy)-2,4-dimethylpentan-2-amine]
- IC50: 0.7 nM

Compound: CC(C)C[C@](C)(N)COc1ccc(-c2ccnc3cccnc23)cc1C#N [Example 87, (S)-2-((2-amino-2,4-dimethylpentyl)oxy)-5-(1,5-naphthyridin-4-yl)benzonitrile]
- IC50: 0.87 nM

Compound: Cc1cc(-c2ccc(OC[C@@H](N)CC(C)C)c(C#N)c2)cnn1 [Example 109, (S)-2-((2-amino-4-methylpentyl)oxy)-5-(6-methylpyridazin-4-yl)benzonitrile]
- IC50: 340 nM

Compound: CC(C)C[C@](C)(N)COc1ccc(-c2ccnc(F)c2)cc1F [Example 93, (S)-1-(2-fluoro-4-(2-fluoropyridin-4-yl)phenoxy)-2,4-dimethylpentan-2-amine]
- IC50: 33 nM

Compound: COC(=O)Nc1cc(-c2ccc(OC[C@](N)(CF)CC(C)C)c(C(F)F)n2)ccn1 [Example 179, (S)-methyl (5-((2-amino-2-(fluoromethyl)-4-methylpentyl)oxy)-6-(difluoromethyl)-[2,4′-bipyridin]-2′-yl)carbamate]
- IC50: 2 nM

Compound: COC(=O)Nc1cc(-c2ccc(OC[C@@](C)(N)CC(C)C)c3ccccc23)ccn1 [Example 208, (S)-methyl (4-(4-((2-amino-2,4-dimethylpentyl)oxy)naphthalen-1-yl)pyridin-2-yl)carbamate]
- IC50: 4.6 nM

Compound: COC(=O)Nc1cc(-c2ccc(OC[C@@](C)(N)CC(C)C)c(C)n2)ccn1 [Example 64, (S)-methyl (5-((2-amino-2,4-dimethylpentyl)oxy)-6-methyl-[2,4′-bipyridin]-2′-yl)carbamate]
- IC50: 1.1 nM

Compound: CC(=O)Nc1cc(-c2ccc(OC[C@@H](N)CC(C)C)c(C)c2)ccn1 [Example 7, (S)—N-(4-(4-((2-amino-4-methylpentyl)oxy)-3-methylphenyl)pyridin-2-yl)acetamide]
- IC50: 0.42 nM

Compound: CC(C)C[C@](C)(N)COc1ccc(-c2ccnc3cc(F)cc(F)c23)nc1C(F)F [Example 129]
- IC50: 1.4 nM

Compound: CC(C)C[C@](C)(N)COc1ccc(-c2ccnc3cc(C(F)(F)F)ccc23)cc1C(F)(F)F [Example 70, (S)-2,4-dimethyl-1-(2-(trifluoromethyl)-4-(7-(trifluoromethyl)quinolin-4-yl)phenoxy)pentan-2-amine]
- IC50: 2.3 nM

Compound: CC(C)C[C@](C)(N)COc1ccc(-c2ccnc3[nH]ccc23)cc1C(F)(F)F [Example 84, (S)-1-(4-(1H-pyrrolo[2,3-b]pyridin-4-yl)-2-(trifluoromethyl)phenoxy)-2,4-dimethylpentan-2-amine]
- IC50: 2.2 nM

Compound: Cc1cc(-c2ccnc(F)c2)cnc1OC[C@@](C)(N)CC(C)C [Example 95, (S)-1-((2′-fluoro-5-methyl-[3,4′-bipyridin]-6-yl)oxy)-2,4-dimethylpentan-2-amine]
- IC50: 39 nM

Compound: CC(C)C[C@](C)(N)COc1ncc(-c2ccnc3ccc(F)cc23)cc1C(F)F [Example 200, (S)-1-((3-(difluoromethyl)-5-(6-fluoroquinolin-4-yl)pyridin-2-yl)oxy)-2,4-dimethylpentan-2-amine]
- IC50: 1.2 nM

Compound: CC(C)C[C@](C)(N)COc1ccc(-c2ccnc3ccccc23)cc1C#N [Example 104, (S)-2-((2-amino-2,4-dimethylpentyl)oxy)-5-(quinolin-4-yl)benzonitrile]
- IC50: 0.83 nM

Compound: CC(=O)Nc1cccc(-c2ccc(OCC(C)(N)CC(C)C)c(C)c2)c1 (stereo not shown) [Example 250, N-(4′-((2-amino-2,4-dimethylpentyl)oxy)-3′-methyl-[1,1′-biphenyl]-3-yl)acetamide]
- IC50: 659 nM

Compound: COC(=O)Nc1cc(-c2ccc(OC[C@@](C)(N)CC(C)C)c(CO)c2)ccn1 [Example 32, (S)-methyl (4-(4-((2-amino-2,4-dimethylpentyl)oxy)-3-(hydroxymethyl)phenyl)pyridin-2-yl)carbamate]
- IC50: 4.5 nM

Compound: COC(=O)Nc1cc(-c2ccc(OC[C@@](N)(CF)CC(C)C)c(C(F)F)n2)ccn1 [Example 180, (R)-methyl (5-((2-amino-2-(fluoromethyl)-4-methylpentyl)oxy)-6-(difluoromethyl)-[2,4′-bipyridin]-2′-yl)carbamate]
- IC50: 24 nM
